The values that follow come from paper PMC6934184, “Selective DNA-PKcs inhibition extends the therapeutic index of localized radiotherapy and chemotherapy” (The Journal of Clinical Investigation, 2019).

The target of the assay is T1, PRKCA (PKC alpha) (Homo sapiens, UniProt P17252).
T1 construct: purchased Thermo Fisher Scientific (Life Technologies) SelectScreen
The assay is described as follows: SelectScreen Z'LYTE. Type of assay: biochemical. An outline of the steps: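 NU5455 was profiled across the SelectScreen Broad panel of kinase activity and binding assays. Z'LYTE reactions such as CSF1R ran at apparent Km ATP, while the Adapta CAMK1 assay used ATP listed as 10. Values are given as percent.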

As for `CN(C(=O)CN1CCOCC1)c1ccc2sc3c(-c4cccc5c(=O)cc(N6CC7CCC(C6)O7)oc45)cccc3c2c1` [NU5455], the inhibition (usually the change of the read-out against control, counted positive when it falls) at 1 µM is -2%.
